Measured values as given in article PMC7801405, “Structure, substrate specificity, and catalytic mechanism of human D-2-HGDH and insights into pathogenicity of disease-associated mutations” (Cell Discovery, 2021).
pKd: −log10 of the molar value.

Legend:
[1] = target: T1, D-2-hydroxyglutarate dehydrogenase (D-2-HGDH) (Homo sapiens, UniProt Q8N465); experiment: crystal structure ([…] Å); SPR with DTT-treated protein (reduced FAD); no measurable binding to the untreated protein
T1 construct: gene D2HGDH
T1 sequence (Q8N465 51-521): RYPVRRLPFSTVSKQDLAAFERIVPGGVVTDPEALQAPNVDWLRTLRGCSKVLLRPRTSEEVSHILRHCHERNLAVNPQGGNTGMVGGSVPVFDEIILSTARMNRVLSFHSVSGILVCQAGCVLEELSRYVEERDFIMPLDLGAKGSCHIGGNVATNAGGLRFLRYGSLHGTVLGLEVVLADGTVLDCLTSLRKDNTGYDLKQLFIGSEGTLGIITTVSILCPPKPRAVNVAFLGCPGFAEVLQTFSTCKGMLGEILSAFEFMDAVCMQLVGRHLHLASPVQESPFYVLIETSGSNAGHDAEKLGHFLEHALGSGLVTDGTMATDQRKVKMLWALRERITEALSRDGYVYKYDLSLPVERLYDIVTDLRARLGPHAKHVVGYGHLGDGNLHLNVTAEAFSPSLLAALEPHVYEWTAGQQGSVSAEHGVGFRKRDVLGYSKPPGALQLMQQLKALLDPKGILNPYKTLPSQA

[2] = target: T1, D-2-hydroxyglutarate dehydrogenase (D-2-HGDH); experiment: crystal structure ([…] Å), SPR, enzyme kinetics; format: binding
[3] = target: T1, D-2-hydroxyglutarate dehydrogenase (D-2-HGDH); experiment: crystal structure ([…] Å), SPR, enzyme kinetics; format: binding; remark: listed apart in the source
[4] = target: T1, D-2-hydroxyglutarate dehydrogenase (D-2-HGDH); experiment: crystal structure ([…] Å), SPR, enzyme kinetics; format: binding; remark: listed apart in the source

Q: How did the pKd [1] turn out when `O=C(O)CCC(=O)C(=O)O` [2-OG, 2-oxoglutarate] was run?
A: 2.15

Q: How did the pKd [2] turn out when `O=C(O)CC[C@@H](O)C(=O)O` [D-2-HG, D-2-hydroxyglutarate] was run?
A: 3.83

Q: How did the pKd [3] turn out when `C[C@@H](O)C(=O)O` [D-LAC, D-lactate] was run?
A: 2.79

Q: `O=C(O)C[C@@H](O)C(=O)O` [D-MAL, D-malate] was tested. Which pKd [4] did it give?
A: 3.10
